Laboratory results as given in US11446287B2, “Compounds and methods for EP300 or CBP modulation and indications therefor” (Opna Immuno-Oncology SA, priority 2019, dated 2022).

The molecules below were run against T1, Recombinant human EP300 containing the bromodomain (EP300-BD (1040-1161)) (Homo sapiens, UniProt Q09472) (assay: EP300 Alphascreen binding assay).
T1 construct: Recombinant human EP300 bromodomain (EP300-BD (1040-1161)); made in house; host or cells: E. coli BL21-CodonPlus (DE3), modified pET vector
T1 sequence (Q09472 1040-1161): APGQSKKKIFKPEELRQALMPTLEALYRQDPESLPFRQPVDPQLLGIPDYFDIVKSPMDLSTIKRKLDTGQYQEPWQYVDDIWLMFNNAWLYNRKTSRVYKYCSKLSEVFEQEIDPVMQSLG
In short: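 Displacement of a biotinylated acetyl-K56 histone H3 peptide from the N-His bromodomain construct (1040-1161) measured by AlphaScreen proximity, beads at 7.5 μg/ml final, read 60 min after addition. Protein, peptide and compound first incubated 1 h at room temperature, pH 7.5 HEPES buffer; IC50 by four-parameter logistic fit.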

Compound	IC50
Cc1cc(C(=O)O)cnc1-n1cc(CC2CCC2)c2ncc(-c3c(C)noc3C)cc21 [P-0075, 6-(3-(cyclobutylmethyl)-6-(3,5-dimethylisoxazol-4-yl)-1H-pyrrolo[3,2-b]pyridin-1-yl)-5-methylnicotinic acid]	0.1 to 1000 nM
Cc1noc(C)c1-c1cnc2c(CC3CCC3)cn(-c3ccc(C#N)cc3)c2c1 [P-0076, 4-(3-(cyclobutylmethyl)-6-(3,5-dimethylisoxazol-4-yl)-1H-pyrrolo[3,2-b]pyridin-1-yl)benzonitrile]	1000 to 8000 nM
Cc1noc(C)c1-c1cnc2c(CC3CCC3)cn(-c3ccnc(C#N)c3)c2c1 [P-0077, 4-(3-(cyclobutylmethyl)-6-(3,5-dimethylisoxazol-4-yl)-1H-pyrrolo[3,2-b]pyridin-1-yl)picolinonitrile]	0.1 to 1000 nM
Cc1noc(C)c1-c1cnc2c(c1)c(-c1cccc(C(=O)NC#N)c1)cn2Cc1ccccc1 [P-0078, 3-(1-benzyl-5-(3,5-dimethylisoxazol-4-yl)-1H-pyrrolo[2,3-b]pyridin-3-yl)-N-cyanobenzamide]	0.1 to 1000 nM
Cc1noc(C)c1-c1cnc2c(c1)c(-c1cccc(C(=O)NO)c1)cn2Cc1ccccc1 [P-0079, 3-(1-benzyl-5-(3,5-dimethylisoxazol-4-yl)-1H-pyrrolo[2,3-b]pyridin-3-yl)-N-hydroxybenzamide]	0.1 to 1000 nM
Cc1noc(C)c1-c1cnc2c(c1)c(-c1ccc(C(=O)O)cc1)cn2C(C)c1ccccn1 (stereo not shown) [P-0080, 4-(5-(3,5-dimethylisoxazol-4-yl)-1-(1-(pyridin-2-yl)ethyl)-1H-pyrrolo[2,3-b]pyridin-3-yl)benzoic acid]	1000 to 8000 nM
Cc1noc(C)c1-c1cnc2c(c1)c(-c1cccc(S(N)(=O)=O)c1)cn2Cc1ccccc1 [P-0081, 3-(1-benzyl-5-(3,5-dimethylisoxazol-4-yl)-1H-pyrrolo[2,3-b]pyridin-3-yl)benzenesulfonamide]	0.1 to 1000 nM
CNS(=O)(=O)c1cccc(-c2cn(Cc3ccccc3)c3ncc(-c4c(C)noc4C)cc23)c1 [P-0082, 3-(1-benzyl-5-(3,5-dimethylisoxazol-4-yl)-1H-pyrrolo[2,3-b]pyridin-3-yl)-N-methylbenzenesulfonamide]	1000 to 8000 nM
Cc1noc(C)c1-c1cnc2c(c1)c(-c1cccc(S(=O)(=O)NC3CC3)c1)cn2Cc1ccccc1 [P-0083, 3-(1-benzyl-5-(3,5-dimethylisoxazol-4-yl)-1H-pyrrolo[2,3-b]pyridin-3-yl)-N-cyclopropylbenzenesulfonamide]	0.1 to 1000 nM
Cc1noc(C)c1-c1cnc2c(C(=O)C3CC3)c(O)n(-c3ccnc(C(=O)O)c3)c2c1 [P-0084, 4-(3-(cyclopropanecarbonyl)-6-(3,5-dimethylisoxazol-4-yl)-2-hydroxy-1H-pyrrolo[3,2-b]pyridin-1-yl)picolinic acid]	0.1 to 1000 nM
Cc1noc(C)c1-c1cnc2c(c1)c(-c1cccc(C(=O)O)c1)cn2C(=O)c1ccccc1 [P-0085, 3-(1-benzoyl-5-(3,5-dimethylisoxazol-4-yl)-1H-pyrrolo[2,3-b]pyridin-3-yl)benzoic acid]	0.1 to 1000 nM
Cc1noc(C)c1-c1cnc2c(CC3CCC3)cn(-c3c(C(=O)O)ccc(Br)c3F)c2c1 [P-0086, 4-bromo-2-(3-(cyclobutylmethyl)-6-(3,5-dimethylisoxazol-4-yl)-1H-pyrrolo[3,2-b]pyridin-1-yl)-3-fluorobenzoic acid]	0.1 to 1000 nM
COc1c(-n2cc(CC3CCC3)c3ncc(-c4c(C)noc4C)cc32)ccc(C(=O)O)c1F [P-0087, 4-(3-(cyclobutylmethyl)-6-(3,5-dimethylisoxazol-4-yl)-1H-pyrrolo[3,2-b]pyridin-1-yl)-2-fluoro-3-methoxybenzoic acid]	0.1 to 1000 nM
Cc1noc(C)c1-c1cnc2c(C(=O)c3cccc(Cl)c3)cn(-c3ccnc(C(=O)O)c3)c2c1 [P-0088, 4-(3-(3-chlorobenzoyl)-6-(3,5-dimethylisoxazol-4-yl)-1H-pyrrolo[3,2-b]pyridin-1-yl)picolinic acid]	0.1 to 1000 nM
Cc1noc(C)c1-c1cnc2c(C(=O)c3ccccc3Cl)cn(-c3ccnc(C(=O)O)c3)c2c1 [P-0089, 4-(3-(2-chlorobenzoyl)-6-(3,5-dimethylisoxazol-4-yl)-1H-pyrrolo[3,2-b]pyridin-1-yl)picolinic acid]	0.1 to 1000 nM
Cc1noc(C)c1-c1cnc2c(Cc3cccc(Cl)c3)cn(-c3ccnc(C(=O)O)c3)c2c1 [P-0090, 4-(3-(3-chlorobenzyl)-6-(3,5-dimethylisoxazol-4-yl)-1H-pyrrolo[3,2-b]pyridin-1-yl)picolinic acid]	0.1 to 1000 nM
Cc1noc(C)c1-c1cnc2c(Cc3ccccc3Cl)cn(-c3ccnc(C(=O)O)c3)c2c1 [P-0091, 4-(3-(2-chlorobenzyl)-6-(3,5-dimethylisoxazol-4-yl)-1H-pyrrolo[3,2-b]pyridin-1-yl)picolinic acid]	0.1 to 1000 nM
Cc1noc(C)c1-c1cnc2c(c1)c(-c1cccc(C(=O)NS(C)(=O)=O)c1)cn2Cc1ccccc1 [P-0092, 3-(1-benzyl-5-(3,5-dimethylisoxazol-4-yl)-1H-pyrrolo[2,3-b]pyridin-3-yl)-N-(methylsulfonyl)benzamide]	0.1 to 1000 nM
Cc1noc(C)c1-c1cnc2c(c1)c(C1=CCC(C(=O)O)CC1)cn2Cc1ccccc1 (stereo not shown) [P-0093, 4-(1-benzyl-5-(3,5-dimethylisoxazol-4-yl)-1H-pyrrolo[2,3-b]pyridin-3-yl)cyclohex-3-ene-1-carboxylic acid]	0.1 to 1000 nM
Cc1noc(C)c1-c1cnc2c(c1)c(-c1c(F)cc(C(=O)O)cc1F)cn2C(C)c1ccccn1 (stereo not shown) [P-0094, 4-(5-(3,5-dimethylisoxazol-4-yl)-1-(1-(pyridin-2-yl)ethyl)-1H-pyrrolo[2,3-b]pyridin-3-yl)-3,5-difluorobenzoic acid]	0.1 to 1000 nM
Cc1noc(C)c1-c1cnc2c(c1)c(-c1c(Cl)cc(C(=O)O)cc1Cl)cn2C(C)c1ccccn1 (stereo not shown) [P-0095, 3,5-dichloro-4-(5-(3,5-dimethylisoxazol-4-yl)-1-(1-(pyridin-2-yl)ethyl)-1H-pyrrolo[2,3-b]pyridin-3-yl)benzoic acid]	0.1 to 1000 nM
Cc1noc(C)c1-c1cnc2c(c1)c(-c1c(F)ccc(NS(C)(=O)=O)c1F)cn2C(C)c1ccccn1 (stereo not shown) [P-0096, N-(3-(5-(3,5-dimethylisoxazol-4-yl)-1-(1-(pyridin-2-yl)ethyl)-1H-pyrrolo[2,3-b]pyridin-3-yl)-2,4-difluorophenyl)methanesulfonamide]	0.1 to 1000 nM
